The conditions of assay [1]: EP 484,281 and Eur. J. Immunol., 17, 1359 (1987); cited from earlier work.

Where two headings read alike, the source gives them in different places.

With [4'-hydroxy-MeLeu]^4 -cyclosporin A, the immunosuppressing nature entry in assay [1] is recorded as “not immunosuppressing”.
With “[(R)-2-(N,N-Dimethylamino)ethylthio-Sar]^3 -[4'-hydroxy-MeLeu]^4 -cyclosporin A [Example 1]”, the effect of combination result is “synergistic effect” in the assay with retroviruses (combined with AZT, ddl, Saquinavir, Nevirapin, Ritonavir and/or ribavirin) and “additive effect” in the assay with retroviruses (combined with Indinavir).

Values taken from patent publication US5994299A, “Cyclosporin compounds, their preparation and the pharmaceutical compositions which contain them” (Rhone-Poulenc Rorer, S.A., priority 1996, dated 1999).
